According to patent publication US20090099192A1, “Substituted 1H-pyrrole-2,5-diones” (Bayer CropScience AG, priority 2004, published 2009):

Key:
[1] = logP determination by HPLC on reversed-phase column (C 18), EEC Directive 79/831 Annex V.A8; type: physicochemical; settings: reversed-phase C 18, 43° C., acid range (0.1% aqueous phosphoric acid, acetonitrile), marked a)
Outline: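 Reversed-phase C18 HPLC at 43° C, per EEC Directive 79/831 Annex V.A8, acid range: 0.1% aqueous phosphoric acid with linear 10–90% acetonitrile gradient. logP derived from retention time by linear interpolation between calibrating unbranched alkan-2-ones (C3–C16) of known logP.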

[2] = test system: larvae of the mustard beetle (Phaedon cochleariae); experiment: Phaedon larvae test (cabbage leaves dipped); type: in vivo
Outline: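 Cabbage (Brassica oleracea) leaves dipped in compound emulsion diluted in water to the test concentration, then infested with Phaedon cochleariae larvae while still moist. After the set period, % kill is scored (100% = all larvae dead, 0% = none).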

[3] = test system: larvae of the mustard beetle (Phaedon cochleariae); experiment: Phaedon test (spray treatment); type: in vivo
Outline: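 Chinese cabbage leaf disks sprayed with compound diluted in emulsifier-containing water, dried, then infested with mustard beetle larvae. After a set period, mortality scored in %: 100% all larvae dead, 0% none dead.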

[4] = test system: caterpillars of the army worm (Spodoptera frugiperda); experiment: Spodoptera frugiperda test (cabbage leaves dipped); type: in vivo
Method: (§1) [table] To produce a suitable preparation of active compound, 1 part by weight of active compound is mixed with the stated amount of solvent and the stated amount of emulsifier, and the concentrate is diluted with emulsifier-containing water to the desired concentration. Cabbage leaves (Brassica oleracea) are treated by being dipped into the active compound preparation of the desired concentration and populated with caterpillars of the army worm (Spodoptera frugiperda) while the leaves are still moist. After the desired period of time, the kill in % is determined. 100% means that all caterpillars have been killed; 0% means that none of the caterpillars have been killed.

[5] = test system: caterpillars of the diamond back moth (Plutella xylostella); experiment: Plutella test; type: in vivo
Method: as §1, with “amounts” for “amount”, “and” for “and the stated amount of”, “diamond back moth (Plutella xylostella)” for “army worm (Spodoptera frugiperda)”

[6] = test system: caterpillars of the diamond back moth (Plutella xylostella, resistant strain); experiment: Plutella test; resistant strain; type: in vivo
Method: (§2) To produce a suitable preparation of active compound, 1 part by weight of active compound is mixed with the stated amounts of solvent and emulsifier, and the concentrate is diluted with emulsifier-containing water to the desired concentration.
Cabbage leaves (Brassica oleracea) are treated by being dipped into the active compound preparation of the desired concentration and populated with caterpillars of the diamond back moth (Plutella xylostella, resistant strain) while the leaves are still moist.
After the desired period of time, the kill in % is determined. 100% means that all caterpillars have been killed; 0% means that none of the caterpillars have been killed.

[7] = test system: common spidermite (Tetranychus urticae); experiment: Tetranychus test; type: in vivo; settings: 500 ppm, spray, Phaseolus vulgaris disks
Method: as §2
Disks of beans (Phaseolus vulgaris), which are infested by all stages of the common spidermite (Tetranychus urticae) are sprayed with an active compound preparation of the desired concentration.
After the desired period of time, the effect in % is determined. 100% means that all spidermites have been killed; 0% means that none of the spidermites have been killed.

[8] = test system: caterpillars of the army worm (Spodoptera exigua); experiment: Spodoptera exigua test; type: in vivo
Method: as §1, with “amounts” for “amount”, “and” for “and the stated amount of”, “exigua)” for “frugiperda)”

[9] = 500 ppm, leaf dip, Brassica oleracea

In the case of `O=C1C(O)=C(c2ccccc2Cl)C(=O)N1C1CCCC(C(F)(F)F)C1` (centres unmarked) [Example 214], the logP [1] is reported as “logP = 3.53^a)”, the “activity in the Phaedon larvae test” value [2] is reported as “good activity” and the “Kill rate in % after 7 d” value [2, 9] is reported as 100%. For the same compound, the “activity in the Phaedon test (spray treatment)” value [3] was “good activity”, the “Kill rate in % after 7 d” value ([3]; 100 g/ha, spray, Brassica pekinensis disks) was 100% and the “activity in the Spodoptera frugiperda test (leaf dip)” value [4] was “good activity”. For the same compound, the “Kill rate in % after 7 d” value [4, 9] was 100%, the “activity in the Plutella test” value [5] was “good activity” and the “Kill rate in % after 7 d” value ([5]; 500 ppm, leaf dip) was 100%. The “activity in the Plutella test, resistant strain” value [6] was “good activity”, the “Kill rate in % after 7 d” value ([6]; 500 ppm, leaf dip, resistant strain) was 100% and the “Kill rate in % after 5 d” value [7] was 90%. For the same compound, the “activity in the Spodoptera exigua test” value [8] was “good activity” and the “Kill rate in % after 7 d” value ([8]; 500 ppm, leaf dip) was 100%.
